Measurements published in ChEMBL document CHEMBL1130062 (J Med Chem, 1997).

Tests used:
Dihydrofolate reductase = biological target: T1, Dihydrofolate reductase (Pneumocystis carinii, UniProt P16184)
T1 sequence (P16184 whole entry): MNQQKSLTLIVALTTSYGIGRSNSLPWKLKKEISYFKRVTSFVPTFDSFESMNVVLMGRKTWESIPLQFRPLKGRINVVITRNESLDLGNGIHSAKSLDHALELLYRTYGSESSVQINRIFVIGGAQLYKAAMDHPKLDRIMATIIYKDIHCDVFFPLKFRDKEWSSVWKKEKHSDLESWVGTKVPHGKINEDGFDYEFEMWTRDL
Description: In vitro inhibitory concentration against Pneumocystis carinii dihydrofolate reductase

Pneumocystis carinii = assay: Concentration required to inhibit uptake of [3H]4-aminobenozoic acid over 24 hr against Pneumocystis carinii microorganisms extracted from immunocompromized rats.; settings: Rattus norvegicus
[1] = Selectivity index measured as the ratio of IC50 for rat liver DHFR to IC50 for Toxoplasma gondii DHFR.
[2] = biological target: T2, Bifunctional dihydrofolate reductase-thymidylate synthase (Toxoplasma gondii, UniProt Q07422); assay: Inhibitory concentration against Toxoplasma gondii dihydrofolate reductase
T2 sequence (Q07422 whole entry): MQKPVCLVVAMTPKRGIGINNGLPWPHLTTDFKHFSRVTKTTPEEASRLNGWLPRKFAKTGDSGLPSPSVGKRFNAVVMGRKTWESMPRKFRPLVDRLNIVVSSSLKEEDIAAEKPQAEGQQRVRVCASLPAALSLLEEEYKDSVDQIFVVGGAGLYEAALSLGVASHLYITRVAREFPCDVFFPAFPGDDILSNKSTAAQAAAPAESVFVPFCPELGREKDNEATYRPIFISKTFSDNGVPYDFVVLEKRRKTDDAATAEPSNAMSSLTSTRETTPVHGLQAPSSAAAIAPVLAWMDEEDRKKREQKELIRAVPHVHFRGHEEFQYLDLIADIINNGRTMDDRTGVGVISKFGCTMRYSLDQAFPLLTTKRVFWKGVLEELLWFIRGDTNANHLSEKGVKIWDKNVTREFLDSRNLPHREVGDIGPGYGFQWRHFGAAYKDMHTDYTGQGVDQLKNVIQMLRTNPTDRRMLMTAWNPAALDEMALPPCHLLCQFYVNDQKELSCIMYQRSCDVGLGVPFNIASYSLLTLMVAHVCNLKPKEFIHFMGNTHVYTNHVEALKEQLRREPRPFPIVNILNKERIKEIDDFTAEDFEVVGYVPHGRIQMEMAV

IC50 (Dihydrofolate reductase) [µM]	SMILES	also measured
> 11	CCc1nc(N)nc(N)c1-c1ccc(Cl)c(/N=N/N(C(C)(C)C)C(C)(C)C)c1	–
0.57	CCc1nc(N)nc(N)c1-c1ccc(Cl)c(/N=N/N(C)Cc2ccccc2)c1	–
–	CCc1nc(N)nc(N)c1-c1ccc(Cl)c(/N=N/N(CCOC(C)=O)Cc2ccccc2)c1	IC50 (Pneumocystis carinii): 43.9 µg/mL
6.6	CCc1nc(N)nc(N)c1-c1ccc(Cl)c(/N=N/N(C)CC)c1 [listing 1 of 2 here]	–
10.2	CCCN(C)/N=N/c1cc(-c2c(N)nc(N)nc2CC)ccc1Cl [listing 1 of 2 here]	–
> 11	CCc1nc(N)nc(N)c1-c1ccc(Cl)c(/N=N/N2CCCC2)c1	–
–	CCc1nc(N)nc(N)c1-c1ccc(N(C)Cc2ccccc2)c([N+](=O)[O-])c1	IC50 [2]: 0.091 µM
–	N=C(N)c1ccc(OCCCCCOc2ccc(C(=N)N)cc2)cc1	IC50 (Pneumocystis carinii): 2.5 µM
14.1	CCc1nc(N)nc(N)c1-c1ccc(Cl)c(/N=N/N(C)CC)c1 [listing 2 of 2 here]	–
1.33	CCc1nc(N)nc(N)c1-c1ccc(Cl)c(N=[N+]=[N-])c1	Selectivity index [1]: 0.5; IC50 [2]: 0.69 µM
10.6	CCc1nc(N)nc(N)c1-c1ccc(Cl)c(/N=C/N(C)C)c1	IC50 [2]: 1.6 µM
5	CCc1nc(N)nc(N)c1-c1ccc(Cl)c(/N=N/N2CCc3ccccc3C2)c1	–
8.5	CCc1nc(N)nc(N)c1-c1ccc(Cl)c(/N=N/N2CCN(C)CC2)c1	–
7.6	CCCN(C)/N=N/c1cc(-c2c(N)nc(N)nc2CC)ccc1Cl [listing 2 of 2 here]	–
–	CCc1nc(N)nc(N)c1-c1ccc(Cl)c(/N=N/N2CCOCC2)c1	IC50 [2]: 0.19 µM; IC50 (Pneumocystis carinii): 49.7 µg/mL
–	CCc1nc(N)nc(N)c1-c1ccc(Cl)c(/N=N/N(CCOC)CCOC)c1	Selectivity index [1]: 3; IC50 [2]: 8.8 µM; IC50 (Pneumocystis carinii): 30.5 µg/mL
40.4	CCc1nc(N)nc(N)c1-c1ccc(Cl)c(/N=N/N2CCCCC2)c1	–
–	CCc1nc(N)nc(N)c1-c1ccc(Cl)c([N+](=O)[O-])c1	Selectivity index [1]: 1.1; IC50 [2]: 0.013 µM
6	CCc1nc(N)nc(N)c1-c1ccc(Cl)c(/N=N/N(C)C)c1 [listing 1 of 2 here]	–
–	CCc1nc(N)nc(N)c1-c1ccc(Cl)c([N+]#N)c1	IC50 [2]: 0.023 µM
2.8	CCc1nc(N)nc(N)c1-c1ccc(Cl)c(/N=N/N(C)C)c1 [listing 2 of 2 here]	IC50 [2]: 0.31 µM

SMILES	IC50 (Dihydrofolate reductase) [µM]	also measured
CCc1nc(N)nc(N)c1-c1ccc(Cl)c(/N=N/N(CCO)C(C)(C)C)c1	4.9	–
CCCN(CCO)/N=N/c1cc(-c2c(N)nc(N)nc2CC)ccc1Cl	2.5	–
CCc1nc(N)nc(N)c1-c1ccc(Cl)c(/N=N/N(C)CC2OCCO2)c1	0.57	Selectivity index [1]: 28
CCc1nc(N)nc(N)c1-c1ccc(Cl)c(/N=N/N(CCO)CCO)c1	0.44	IC50 (Pneumocystis carinii): 46.6 µg/mL
CCc1nc(N)nc(N)c1-c1ccc(Cl)c(/N=N/N(C)CCO)c1	3.5	–
CCc1nc(N)nc(N)c1-c1ccc(Cl)c(/N=N/N2CCC(O)CC2)c1	3.3	–
CCc1nc(N)nc(N)c1-c1ccc(Cl)c(/N=N/N(CC)CCO)c1	11.5	–
CCc1nc(N)nc(N)c1-c1ccc(Cl)c(/N=N/N(CCO)Cc2ccccc2)c1	0.26	IC50 (Pneumocystis carinii): 11.1 µg/mL
